Here are results for seven compounds from patent US20030148259A1, “Method of identifying insulin secretion stimulating compounds, and the use of such compounds in treating insulin-secretion related disorders” (priority 2002, published 2003).

Ends that are not written are not given here.

Data set [1] has as its system INS-1E cells. As to the kind of experiment: Insulin release from INS-1E cells (insulin ELISA). It is filed as cell-based, rat. The method, then: Glucose-responsive clonal insulinoma cells (INS-1E) were cultured in RPMI-1640 medium supplemented with FBS (5%, v/v), penicillin (50 i.u. /ml), streptomycin (50 μg/ml), 2-mercaptoethanol (50 μM), HEPES (10 mM) and sodium pyruvate (1 mM) (Maechler, P. et al., IUBMB.Life 50, 27-31(2000). Medium was changed every other day.
INS-1E cells (200,000/ well) were seeded in 24-well plates and cultured for 6-7 days before using them for insulin release assay. On the day of experiment, cells were incubated in RPMI without glucose for 2 hours. Cells attached to the wells were then washed three times with warm (37° C.) medium (KRBH) containing (in mM): NaCl 140, NaHCO3 2, KCl 3.6, NaH2PO4 0.5, MgSO4 0.5, HEPES 10, CaCl2, 1.5, BSA 0.1% and incubated for 30 minutes at 37°. Cells were then incubated with 500 μl of the test solutions, by adding solution to one well at a time, every 20 sec. After one hour of incubation, 200 μl of supernatant was transferred to Eppendorf tubes, again one well at a time, every 20 sec. The collected materials were then centrifuged and supernatants were used for insulin ELISA.
Background: ELISA stands for enzyme-linked immunosorbent assay.

For another data set, the system named is S5 cells. As to the kind of experiment: Screening for CICR by periodic amplification of Ca2+ signals in S5 cells. It is filed as cell-based, rat. The settings on record: MBED 50 μM, FIG. 4. The method, then: A new type of β-cell, called the S5 cell, which is particularly suitable for use in screening CICR-active drugs in β-cells has been developed by the present inventor. The S5 cells can be obtained from INS-1E cells by adapting the latter to culture conditions where fetal bovine serum is reduced to 2.5% and 2-mercaptoethanol is increased to 500 μM. The S5 cells are more differentiated, more slowly growing than ordinary insulinoma cells, and performs more like normal β-cells.
The S5 cells used in the examples below were obtained by adapting the cells to the above culture conditions over 37 passages. These cells were cultured in RPMI 1640, with L-Glutamine (Life Technologies: Catalog. No. 21875-034), supplemented with HEPES (10 mM, Life Technologies. Catalog. No. 15630-049), and sodium pyruvate (1 mM, Life Technologies. Catalog No. 11360-039). 2.5% (v/v) heat-inactivated fetal bovine serum was added to this medium and the medium was aliquoted in 50 ml tubes. To this medium, 500 μM 2-mercaptoethanol (Life Technologies. Catalog. No. 31350-010) and penicillin (50 i.u./ml), streptomycin (50 μg/ml) (Life Technologies. Catalog. No. 15070-063) was added immediately before the medium was used for culture. 2-mercaptoethanol (50 mM, stock) was aliquoted and stored frozen in 100 μl portions and was thawed just before use. […]

Data set [2] concerns INS-1E cells. As to the kind of experiment: Confocal microscopy imaging of [Ca2+]i in fluo-3 loaded cells. It is filed as cell-based, rat. As for the experimental part:
INS-1E cells were incubated in medium containing 5 mM glucose and 5 μM fluo-3 AM for 30 minutes followed by 10 min in medium without fluo-3Cover slips were mounted in a superfusion chamber, which was superfused with physiological solution at 3 ml/min. A three-way solenoid valve system allowed for rapid exchange of solutions. The dead space of the system (from valve inlet to chamber) was -0.5 ml. The flow was increased to 6 ml/min 15 s prior to switching from control solution to experimental solutions and reduced back to 3 ml/min after return to normal solution. [Ca^2+]1 were recorded with a BioRad laser scanning confocal system (BioRad MRC 1024) attached to a Nikon Diaphot 200 inverted microscope equipped with Nikon Plan Apo 60×1.4 NA oil immersion objective. Fluo-3 was excited at 488 nm (15 mW krypton-argon mixed gas laser, intensity attenuated to 3%) and the emitted light was collected through a 522 nm narrow band filter. Images were obtained with the iris closed to the minimum size that was compatible with good image quality. For each image, 3× Kalman averaging was used. Images were stored and converted to pseudo-color images using Scion Image software (Scion Corporation, Maryland).
Ratios were calculated using the initial fluorescence F0, and the observed fluorescence F using the equation R=F/F0, and these ratios were subsequently converted into [Ca^2+]i using the equation: [Ca^2+]i=RxKD/((KD/resting [Ca^2+]i)−R). […] Resting [Ca^2+]i in these cells under the conditions of experiment was 35 nM. All experiments were carried out at room temperature (25° C.).

A further data set has as its system β-cells. Nature of the data set: Screening for CICR-active agents by periodic amplification of Ca2+ signals in single β-cells (fura-2 microfluorometry). Type of data set: cell-based, mouse.
The next data set deals with cAMP-PDEs. As to the kind of experiment: Phosphodiesterase assay (cAMP-PDE activity in insulinoma cell fractions). Type of data set: biochemical, rat. The following applies: for inhibition of cAMP-PDEs: methylxanthine 2.5 mM, FIG. 8D. As for the experimental part:
Rat insulinoma cells were detached from the flasks by trypsin-EDTA. The cells were homogenized in Tris buffer containing (in mM): Tris 10, sucrose 250, EDTA 1.0, phenylmethylsulphonyl fluoride 0.01 and benzamidine 1.0The homogenates were centrifuged (48,000 g, 20 min, 4° C.). Both soluble extracts and the pellet were assayed for cAMP-PDE activity with 0.5 μM 2,8-[^3H]-cyclic AMP as substrate (see Ahmad, M. et al., Br.J.Pharmacol., 129, 1228-1234 (2000) and Thompson, W. J. and Appleman, M. M., Biochemistry, 10, 311-316 (1971)). Assays were performed by the two-step radiometric assay under linear rate formation of product and where less than 10% of substrate is utilized. Activity was expressed as pmol/min/ml and percentage inhibition of the control value.

The subject of another data set is mouse islets. As to the kind of experiment: Insulin release from perifused islets (radio immunoassay). Type of data set: cell-based. The following applies: for stimulation of insulin secretion from islets: 2.5 mM caffeine, 6 μM MBED, FIG. 6; for insulin secretion rate: 40-min stimulation. The method, then:
Normal lean mice (BALB/c, Bomholtgard, Ry, Denmark) weighing 20-25 g were starved overnight and islets isolated by collagenase digestion and dextran purification method (Shi, C. L., Cell Transplant. 6, 33-37 (1997)). Islets were then cultured overnight in RPMI 1640 medium containing 10% FBS, 11.2 mM glucose, 60 i.u./ml penicillin and 60 μg/ml gentamicin, in a water-saturated atmosphere of air and 5% CO2.
Groups of 50 islets were transferred to a perifusion chamber housed in an infant incubator at 37° C. They were perifused at a rate of 1 ml/ min with Krebs-Ringer bicarbonate buffer supplemented with 20 mM HEPES, 0.1% BSA, glucose and drugs as required. The buffer was continuously gassed with 95% 02 and 5% CO2. The islets were perifused for 30 min with this medium containing 2 mM glucose, followed by a 40-min stimulation with 11.2 mM glucose alone (control), or 11.2 mM glucose plus drugs. During the last five minutes of perifusion with 2 mM glucose, three samples of effluent were collected to measure basal rate of insulin secretion. After switching to the 11.2 mM glucose the effluent was sampled every minute for the first five minutes and then at the intervals of 5 minutes. The average rate of insulin secretion (ng/min/50 islets) was calculated by integrating individual perifusion profile. Insulin was measured by radio immunoassay using crystalline mouse insulin as standard (Shi, C. L. cited above).

[3] abbreviates: methylxanthine 2.5 mM, 11.2 mM glucose, 1 hr, FIG. 8A/8C.

In the case of ryanodine, the “effect on glucose-induced insulin secretion” value in the data set on INS-1E cells [1] (100 μM ryanodine, 1 hr exposure) is “did not alter the glucose-induced insulin secretion”. Besides, the “insulin secretion rate (glucose-induced)” value in the data set on INS-1E cells [1] (100 μM ryanodine, 1 hr exposure, n=4) is recorded as 193±11 ng/10^6 cell/hr. In the data set with INS-1E cells [1] (caffeine 0.75 mM plus 100 μM ryanodine), the insulin secretion rate was determined as 354±34 ng/10^6 cell/hr.
In the case of `Cn1c2cnccc2c2c(Br)c(O)c(Br)cc21` [MBED, 5,7-dibromo-6-hydroxy-9-methylpyrido[3,4-b]indole], the “CICR (periodic amplification of Ca2+ signals)” value in the data set on S5 cells was “CICR can clearly be identified”. Also, the “potency relative to caffeine in increasing [Ca2+]i” value with INS-1E cells [2] is on record as “more potent than caffeine”. Besides, the “change in [Ca2+]i” value in the data set with INS-1E cells [2] (MBED 50 μM, FIG. 7) was “increased [Ca^2+]i”. Besides, the “periodic amplified Ca2+ release in β-cells (summary of screening)” value in the data set on β-cells was “elicit periodic amplified Ca^2+ release”. The “potency in stimulating insulin secretion relative to caffeine” value with INS-1E cells [1] (11.2 mM glucose) is reported as “about 400 times”. The insulin secretion entry with INS-1E cells [1] (MBED 6 μM, 3 mM glucose, FIG. 5A) is on record as “no stimulation of insulin secretion”. The insulin secretion entry in the data set with INS-1E cells [1] (MBED 6 μM, 11.2 mM glucose, FIG. 5A) is “almost doubled the insulin secretion”. In addition, the “dose response of insulin secretion” value with INS-1E cells [1] (MBED 0.1 to 100 μM, 11.2 mM glucose, FIG. 5B) is given as “stimulated insulin secretion in a does-dependent manner”. For the same compound, in the data set with cAMP-PDEs (MBED 5 μM), the “Cytosolic cAMP-PDE activity” value was found to be 27.7 ± 2.5 pmol/min/mL and the “Membrane cAMP-PDE activity” value was 26.5 pmol/min/mL. In the data set with cAMP-PDEs (MBED 50 μM), the “Cytosolic cAMP-PDE activity” value is 31.6 ± 0.7 pmol/min/mL and the “Membrane cAMP-PDE activity” value turned out to be 23.2 pmol/min/mL. In the data set on cAMP-PDEs (MBED 5 and 50 μM, Table 1), the “inhibition of PDEs” value is on record as “did not inhibit PDEs”. In addition, the “potency relative to caffeine in islets” value in the data set with mouse islets (6 μM MBED vs 2.5 mM caffeine) is listed as “clearly more potent than caffeine”. In the data set with mouse islets (11.2 mM glucose), the “reversal of stimulated secretion on wash out (lack of major toxic effect)” value is on record as “reversed completely on wash out”; the “stimulation of insulin secretion from islets” value (from here on “stimulation … from islets”) is “persistently stimulated both the first- and second-phases of insulin secretion”.
On to `O=C1CN(/N=C/c2ccc(-c3ccc([N+](=O)[O-])cc3)o2)C(O)=N1` [dantrolene], for which, in the data set with INS-1E cells [1] (dantrolene 75 μM, FIG. 11B), the “effect on glucose-dependent stimulation of insulin secretion by caffeine” value was “abolished”.
For the compound “glucagons-like peptide 1: test substance glucagons-like peptide 1 (HAEGTFTSDVSSYLEGQAAKEFIAWLVKGR; ends and bridges not checked; UniProt P01275 98-127, looked up)”, the “periodic amplification of Ca2+ signals (CICR)” value with β-cells (Example 5, FIG. 2: 30 mM KCl, 10 μM D600 or verapamil, 13 mM glucose) is “gave rise to periodic amplification of Ca^2+ signals”.
For `Cn1c(=O)c2ncn(C)c2n(C)c1=O` [isocaffeine], the “periodic amplification of Ca2+ signals (CICR)” value in the data set with β-cells (Example 6, FIG. 3: 10 mM glucose) is on record as “gave rise to periodic amplifications of Ca^2+ signals”. Besides, the insulin secretion entry in the data set on INS-1E cells [1] (setting [3]) is “stimulated insulin secretion significantly”. The “inhibition of cAMP-PDEs” value in the data set with cAMP-PDEs is listed as “did not inhibit cAMP-PDEs”. For the same compound, in the data set with mouse islets (11.2 mM glucose), the insulin secretion rate is 1.36±0.35 ng/min/50 islets and the “stimulation … from islets” value is “no significant stimulatory effect”.
For `C/C=C(/C)C(=O)O[C@H]1C(C)=C2[C@H]([C@@H]1OC(=O)CCCCCCC)[C@@](C)(OC(C)=O)C[C@H](OC(=O)CCC)[C@@]1(O)[C@H]2OC(=O)[C@@]1(C)O` [thapsigargin], the basal insulin secretion result in the data set on INS-1E cells [1] (thapsigargin-treated (Ca2+-depleted) cells) was “not different compared to that in controls cells”. Further, the “effect on glucose-dependent caffeine-stimulated secretion” value in the data set with INS-1E cells [1] (thapsigargin-treated (ER Ca2+ depleted) cells, caffeine 0.75 mM, FIG. 11A) was “significantly reduced but not abolished”.
For `Cn1cnc2c(=O)[nH]c(=O)n(C)c21` [3,9-dimethylxanthine], in the data set on INS-1E cells [1] (setting [3]), the insulin secretion entry is reported as “equally effective as caffeine in stimulating insulin secretion”. Besides, in the data set on cAMP-PDEs, the “inhibition of cAMP-PDEs” value is “slightly less potent than caffeine in inhibiting cAMP-PDEs”. Besides, in the data set with mouse islets (11.2 mM glucose), the insulin secretion rate is 2.76±0.81 ng/min/50 islets and the “stimulation … from islets” value was “no significant stimulatory effect”.
